Laboratory results as given in paper PMC10545747, “Development of cyclopeptide inhibitors of cGAS targeting protein-DNA interaction and phase separation” (Nature Communications, 2023).
≈ marks a conversion by molar mass, not a printed value. Where “and” joins values, the source holds several entries; their conditions need not be identical. Identical values can stand only once. Entries after “also recorded” stand apart in the source; their conditions may differ. Like-named read-outs stand apart in the source and are kept apart here. Square brackets hold non-standard residues; d marks the D form. Peptide text beside a SMILES is read from it.

Experiments:
[1] = test system: dsDNA-stimulated THP1 cells; test: qPCR of IFNB1/CXCL10/IL6 mRNA in THP1 cells stimulated by dsDNA (ISD, HSV60mer); assay type: cell-based, human; details: for IFNB1 mRNA, qPCR, Fig. 2b: 10 μM
Text: To screen direct cGAS inhibitors targeting protein-DNA interface from our developed focused library of macrocyclic peptides, we applied an RNA-based fluorescent biosensor for 2’,3’-cGAMP to detect cGAS activity in vitro (Supplementary Fig. 1a)[49]. The formation of 2’,3’-cGAMP from ATP and GTP was catalyzed by recombinant human cGAS enzyme (hcGAS-ΔN, residues 147–522, Supplementary Fig. 1b) in the presence of ISD (interferon stimulatory DNA, a 45-bp dsDNA), which was readily quantified by the RNA-based fluorescent biosensor and was further confirmed by ion exchange chromatography (Supplementary Fig. 1c). […] Subsequently, a total of 90 macrocyclic peptides were screened at a concentration of 20 μM (Fig. 1a and Supplementary Fig. 1e), and 4 hits (XQ2, XQ8, XQ19, and XQ46) were obtained for further testing at a cut-off of 40% inhibition (Supplementary Table 1). To evaluate the inhibitory effect of the hits against cGAS in cells, we employed real-time quantitative PCR (qPCR) to examine mRNA levels of IFNΒ1 in THP1 cells. The reported cGAS inhibitor RU.521 was used as the positive control, and the non-active peptide XQ28 in the screening assay was used as the negative control. […] The inhibition of cGAS by these hits was further confirmed in the reporter cell line THP1-Lucia ISG (Invivogen) that expresses secreted luciferase induced by an IRF3-inducible ISG54 promoter (Fig. 1c). The discrepancy between the inhibitory effect of the hits in protein and cellular assays may be attributed to their different cellular permeability.
The indicated cells were stimulated with either ISD (Sangon Biotech), HSV-1 (Provided by Dr. Zhengfan Jiang), HSV60mer (Sangon Biotech), SATE-cddA[70], 2’3’-cGAMP (Invivogen, Cat# tlrl-nacga23-1), ADU-S100 (MedChemExpress, Cat# HY-12885A) or Poly(I:C) (Invivogen, Cat# tlrl-pic) after XQ2 or XQ2B treatment. Total RNA was isolated from indicated cells that incubated with the drugs for indicated time or mice tissues by using NucleoZOL reagent (MACHEREY-NAGEL) according to the manufacturer’s instructions. The quantifications of mRNA levels were carried out by real-time PCR using a PerfectStart® Uni RT&qPCR Kit (TransGen Biotech) on the QuantStudio 5 qPCR machine (Applied Biosystems). Samples were carried out in triplicate and the target CT values were normalized to GAPDH CT values. Primers of qPCR used in this study can be found in Supplementary Table S2.

L929 cells = test: ISD-induced autophagy, LC3-II immunoblotting; assay type: cell-based, mouse; details: for LC3-II relative gray ratio (normalized to GAPDH), Fig. S3a: ISD +
Description: Total cell lysates were prepared in RIPA lysis buffer (Beyotime Biotechnology) supplemented with 1 mM PMSF and 1× protease inhibitor cocktail (Yeasen), and nuclear protein was extracted by nuclear protein extraction kit (Solarbio) in accordance with the manufacturer’s instructions. The samples were separated by SDS-PAGE and transferred to the PVDF membrane (Millipore). The membranes were incubated with the indicated primary antibodies at 4 °C overnight and then incubated with an HRP-conjugated anti-rabbit IgG antibody (Cell Signaling, Cat# 7074, 1:5000) or anti-mouse IgG antibody (Cell Signaling, Cat# 7076, 1:5000) at room temperature for 1 h. The signal was visualized by using the NcmECL Ultra kit (New Cell & Molecular Biotech) and then was exposed by using MiniChemi (SageCreation).
(§1) Supplementary Fig. 3. […] (a) L929 cells were pretreated for
(§2) 4 h with DMSO or the indicated doses of XQ2, followed by stimulation with dsDNA for 4 h, and then cell lysates were
(§3) (b) Jurkat cells were exposed to the indicated doses of XQ2, and then stimulated with
(§4) Data are representative of three independent experiments in (a, b). (Data are presented as mean ± SD, n = 3 independent
(§5) provided as a Source Data file.
(§6) (1 picture or pasted object on this page, not shown here)

Jurkat cells = test system: Jurkat cells
Description: Cell viability was measured by cell counting kit-8 (TargetMol) according to the manufacturer’s instructions.
as §1, §2, §3, §4, §5, §6

physchem = test: physchem
Description: Supplementary Fig. 7. […] (a) THP1 cells were exposed to the indicated doses of XQ2 or XQ2B for 48h. The cell viability was measured by CCK8 assay. (b) The comparison of solubility of XQ2 and XQ2B. The maximum concentration of XQ2 or XQ2B dissolved in water was measured by a spectrophotometer at 280nm. […]
Data are representative of three independent experiments with similar results in (e), or three independent experiments in (a -d, f, g) . (Data are presented as mean ± SD, n = 3 independent samples in (a-d, f, g), ns, not significant, **p < 0.01, ***p < 0.001, ****p < 0.0001 using one-way ANOV A with Dunnett’s post hoc test). Source data are provided as a Source Data file.

CC(C)C[C@@H]1NC(=O)[C@H](CCCNC(=N)N)NC(=O)[C@H](C(C)C)NC(=O)[C@@H]2CCCN2C(=O)[C@@H](Cc2ccccc2)NC(=O)[C@H](CC(C)C)NC(=O)[C@H](CCCNC(=N)N)NC(=O)[C@H](C(C)C)NC(=O)[C@H](C)NC(=O)[C@@H](Cc2ccccc2)NC1=O [XQ2, Cyclo (LfAVRLfPVR)] (cyclo(L[dF]AVRL[dF]PVR))
CXCL10 mRNA (Fig. S2a) ([1]; ISD, XQ2 0.31 μM): 608.071 and 547.477 and 553.882 | IFNB1 mRNA (Fig. S2a) ([1]; ISD, XQ2 0.31 μM): 85.2902 and 89.4127 and 103.445 | IL6 mRNA (Fig. S2a) ([1]; ISD, XQ2 0.31 μM): 53.8661 and 62.1977 and 48.2598 | CXCL10 mRNA (Fig. S2a) ([1]; ISD, XQ2 0.63 μM): 550.9 and 499.514 and 482.522 | IFNB1 mRNA (Fig. S2a) ([1]; ISD, XQ2 0.63 μM): 75.3551 and 77.8155 and 85.6546 | IL6 mRNA (Fig. S2a) ([1]; ISD, XQ2 0.63 μM): 45.9203 and 56.9516 and 44.1827 | CXCL10 mRNA (Fig. S2a) ([1]; ISD, XQ2 1.25 μM): 440.727 and 424.983 and 441.062 | IFNB1 mRNA (Fig. S2a) ([1]; ISD, XQ2 1.25 μM): 54.4915 and 50.1897 and 58.943 | IL6 mRNA (Fig. S2a) ([1]; ISD, XQ2 1.25 μM): 59.6412 and 54.8577 and 42.9996 | CXCL10 mRNA (Fig. S2a) ([1]; ISD, XQ2 2.5 μM): 320.996 and 337.289 and 307.846 | IFNB1 mRNA (Fig. S2a) ([1]; ISD, XQ2 2.5 μM): 46.4673 and 40.8489 and 46.9306 | IL6 mRNA (Fig. S2a) ([1]; ISD, XQ2 2.5 μM): 51.498 and 49.1657 and 30.2376 | CXCL10 mRNA (Fig. S2a) ([1]; ISD, XQ2 5 μM): 341.101 and 357.811 and 355.382 | IFNB1 mRNA (Fig. S2a) ([1]; ISD, XQ2 5 μM): 26.7077 and 29.7394 and 30.8514 | IL6 mRNA (Fig. S2a) ([1]; ISD, XQ2 5 μM): 24.0755 and 29.7141 and 20.0828 | CXCL10 mRNA (Fig. S2a) ([1]; ISD, XQ2 10 μM): 329.162 and 346.227 and 299.128 | IFNB1 mRNA (Fig. S2a) ([1]; ISD, XQ2 10 μM): 10.6974 and 11.3948 and 12.0973 | IL6 mRNA (Fig. S2a) ([1]; ISD, XQ2 10 μM): 18.3875 and 16.237 and 20.2076 | CXCL10 mRNA (Fig. S2a) ([1]; Mock, XQ2 0.31 μM): 0.6255 and 0.7855 and 0.8542 | IFNB1 mRNA (Fig. S2a) ([1]; Mock, XQ2 0.31 μM): 0.7527 and 0.6452 and 0.8722 | IL6 mRNA (Fig. S2a) ([1]; Mock, XQ2 0.31 μM): 0.9875 and 1.125 and 1.458 | CXCL10 mRNA (Fig. S2a) ([1]; Mock, XQ2 0.63 μM): 0.4588 and 0.432 and 0.4044 | IFNB1 mRNA (Fig. S2a) ([1]; Mock, XQ2 0.63 μM): 0.713 and 0.5919 and 0.8053 | IL6 mRNA (Fig. S2a) ([1]; Mock, XQ2 0.63 μM): 1.48 and 1.078 and 1.222 | CXCL10 mRNA (Fig. S2a) ([1]; Mock, XQ2 1.25 μM): 1.308 and 1.359 and 1.615 | IFNB1 mRNA (Fig. S2a) ([1]; Mock, XQ2 1.25 μM): 0.9026 and 1.107 and 1.382 | CXCL10 mRNA (Fig. S2a) ([1]; Mock, XQ2 2.5 μM): 3.137 and 2.991 and 2.833 | IFNB1 mRNA (Fig. S2a) ([1]; Mock, XQ2 2.5 μM): 1.426 and 1.751 and 1.799 | IL6 mRNA (Fig. S2a) ([1]; Mock, XQ2 2.5 μM): 2.387 and 2.459 and 3.439 | CXCL10 mRNA (Fig. S2a) ([1]; Mock, XQ2 5 μM): 1.923 and 2.134 and 2.246 | IFNB1 mRNA (Fig. S2a) ([1]; Mock, XQ2 5 μM): 1.17 and 1.093 and 1.0788 | CXCL10 mRNA (Fig. S2a) ([1]; Mock, XQ2 10 μM): 4.593 and 4.941 and 4.3739 | IFNB1 mRNA (Fig. S2a) ([1]; Mock, XQ2 10 μM): 1.523 and 2.285 and 2.284 | IL6 mRNA (Fig. S2a) ([1]; Mock, XQ2 10 μM): 4.656 and 4.111 and 3.925 | dsDNA/ISD-induced IFNB1, CXCL10, IL6 expression ([1]; THP1): inhibited the expression level of IFNΒ1 and CXCL10, as well as IL6; also recorded: best potency in the cellular assays | IFNB1 mRNA, qPCR, Fig. 2b ([1]; THP1, ISD): 72.2364 and 85.3888 and 75.3743 | IFNB1 mRNA, qPCR, Fig. 2b ([1]; THP1, Mock (no stimulus)): 1.523 and 2.285 and 2.284 | IFNB1 mRNA, qPCR, Fig. 1b ([1]; THP1, dsDNA 6 h, hits 10 μM, replicate values): 24.5085 and 22.546 and 27.0371 | cellular efficacy against cGAS ([1]; as stated in the rebuttal letter, cellular assays): < 10 µM | ISD-induced autophagy, LC3-II formation (L929 cells): significantly reduced ISD-induced autophagy | LC3-II relative gray ratio (normalized to GAPDH), Fig. S3a (L929 cells; XQ2 5 μM): 1.62 and 1.737 and 1.498 | LC3-II relative gray ratio (normalized to GAPDH), Fig. S3a (L929 cells; XQ2 10 μM): 1.275 and 1.336 and 1.295 | ISD-induced cell death (Jurkat cells): markedly suppressed ISD-induced cell death | solubility (physchem): low solubility at higher concentrations | solubility (physchem; Concentration (solubility, Fig. S7b)): 860 µg/mL (≈ 717 µM)
